# Activity calls are given as the source filed them. How the calls were made is not given here.
# Tested on: Cell-based VP16 transactivation luciferase reporter, luminescence
# Test: VP16 transactivation reporter inhibitors, dose response, counter-screen for LRH-1 inverse agonist project, cell-based, luminescence (AID 651973)
row,SMILES,IC50
1,CCOc1ccc(NC(=O)COC(=O)CC2CCCCC2)cc1,> 35.9 µM (inactive)
2,COc1ccc(NC(=O)COC(=O)c2cc(S(=O)(=O)N3CCCC3)ccc2O)cc1,> 35.9 µM (inactive)
3,CCOc1ccc(NC(=O)CSc2nc3[nH]ncc3c(=O)[nH]2)cc1,> 35.9 µM (inactive)
4,O=C(CN1C(=O)NC2(CCCCC2)C1=O)NCCc1c[nH]c2ccccc12,> 35.9 µM (inactive)
5,NC(=O)C1CCN(C(=O)COc2ccc3c4c(c(=O)oc3c2)CCCC4)CC1,> 35.9 µM (inactive)
6,COc1ccc(NC(=O)CS(=O)(=O)c2ccc(C)cc2)c(OC)c1,> 35.9 µM (inactive)
7,COc1ccc(NC(=O)CSc2ccc3c(c2)OCCO3)cc1,> 35.9 µM (inactive)
8,Cc1ccccc1C(=O)NC1CCN(CC(=O)Nc2ccc(Br)cc2)CC1,> 35.9 µM (inactive)
9,Cc1ccn2c(=O)nc(SCC(=O)Nc3ccc4c(c3)OCCO4)nc2c1,> 35.9 µM (inactive)
10,COc1ccc(NC(=O)CSc2nnc3ccc(-c4cccnc4)nn23)cc1OC,> 35.9 µM (inactive)
11,Cc1cccc(CN2C(=O)CSc3ccc(C(=O)NC4CC4)cc32)c1,26.3 µM (inactive)
12,CCOc1ccc(NC(=O)COC(=O)COc2cccc3c2OC(C)(C)C3)cc1,> 35.9 µM (inactive)
13,C/C(=N\Nc1cc(C(F)(F)F)ccc1Cl)c1ccncc1,> 35.9 µM (inactive)
14,Cc1cccc(NC(=O)CSc2nc3[nH]ncc3c(=O)[nH]2)c1C,> 35.9 µM (inactive)
15,COc1cc(OC)cc(C(=O)N[C@H](C(=O)OCC(=O)Nc2ccc3c(c2)OCO3)C(C)C)c1,> 35.9 µM (inactive)
16,CCc1cc(=O)oc2cc(C)cc(OCC(=O)NC3CC3)c12,> 35.9 µM (inactive)
17,O=C(CSc1nnc(CNC(=O)c2c(F)cccc2F)o1)Nc1ccc2c(c1)OCCO2,> 35.9 µM (inactive)
18,COc1ccc(CCNC(=O)CSc2nc3[nH]c(=O)cc(O)c3s2)cc1,> 35.9 µM (inactive)
19,COC(=O)c1ccc(NC(=O)CSc2nc3ncccc3[nH]2)cc1,> 35.9 µM (inactive)

row,SMILES,IC50
1,COc1ccc(CCNC(=O)CSc2nn3c(=O)c(C)nnc3s2)cc1OC,> 35.9 µM (inactive)
2,Cc1no[n+]([O-])c1COc1ccc(/C=C2\NC(=S)NC2=O)cc1,> 35.9 µM (inactive)
3,O=[N+]([O-])c1cc(F)c(N2CCCCCC2)cc1N1CCNCC1,19.3 µM (inactive)
4,CCCc1cc(=O)oc2cc(C)cc(OCC(=O)Nc3ccccn3)c12,> 35.9 µM (inactive)
5,COc1ccc(C2(C)NC(=O)N(CC(=O)NCCC3=CCCCC3)C2=O)cc1OC (stereo not drawn),> 35.9 µM (inactive)
6,CCOc1ccc(NC(=O)CSc2nncc(=O)n2N)cc1,> 35.9 µM (inactive)
7,COC(=O)c1ccc(NC(=O)CSc2ccc(-c3ccccn3)nn2)cc1,> 35.9 µM (inactive)
8,O=C(COC(=O)CCN1C(=O)C2CC=CCC2C1=O)NCCc1ccc(F)cc1 (stereo not drawn),> 35.9 µM (inactive)
9,COCCNc1ccc([N+](=O)[O-])cc1C(=O)NC1CCCc2ccccc21 (stereo not drawn),> 35.9 µM (inactive)
10,Cc1onc(-c2ccccc2Cl)c1C(=O)O/N=C(\N)c1ccc([N+](=O)[O-])o1,> 35.9 µM (inactive)
11,Cc1ccc(C)c(NC(=O)CSc2nc3[nH]ncc3c(=O)[nH]2)c1,> 35.9 µM (inactive)
12,O=C1CCCN2N=C(SCC(=O)Nc3ccc(Br)cc3)SC2=N1,> 35.9 µM (inactive)
13,O=C(CSc1nc(=O)n2cc(Cl)ccc2n1)Nc1ccc2c(c1)OCCO2,> 35.9 µM (inactive)
14,COc1ccc(OCCNC(=O)C2(C)CCN2Cc2ccc3ccccc3c2)cc1 (stereo not drawn),23.8 µM (inactive)
15,Cc1sc(NC(=O)C(C)C)c(C(=O)Nc2ccccc2)c1C,> 35.9 µM (inactive)
16,COc1ccc(NS(=O)(=O)c2ccc(OCC(=O)N3CCN(C)CC3)cc2)cc1Cl,> 35.9 µM (inactive)
17,O=c1[nH]c(Nc2ccc3c(c2)OCCO3)nnc1Cc1ccccc1,> 35.9 µM (inactive)
18,Cc1cc(Br)ccc1NC(=O)CN1C(=O)C2CC=CCC2C1=O (stereo not drawn),> 35.9 µM (inactive)
19,Cc1onc(-c2c(F)cccc2Cl)c1C(=O)O/N=C(\N)c1ccc([N+](=O)[O-])o1,> 35.9 µM (inactive)

# — PubChem BioAssay AID651973 (The Scripps Research Institute Molecular Screening Center, 2013)
